One experiment addresses recombinant mTOR (FLAG-tagged, residues 1362-2549) (Homo sapiens, UniProt P42345). The experiment is described as follows: In vitro mTOR kinase assay (Test (a), AlphaScreen). The format is biochemical. The following applies: ATP 20 μM, read-out: Test (a): IC50 versus mTOR kinase. Put shortly: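 AlphaScreen read-out: a phospho-T389 p70 S6K antibody on acceptor beads captures the phosphorylated biotin-peptide on donor beads, with signal loss indicating inhibition.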
Sequence of recombinant mTOR (FLAG-tagged, residues 1362-2549) (P42345 1362-2549): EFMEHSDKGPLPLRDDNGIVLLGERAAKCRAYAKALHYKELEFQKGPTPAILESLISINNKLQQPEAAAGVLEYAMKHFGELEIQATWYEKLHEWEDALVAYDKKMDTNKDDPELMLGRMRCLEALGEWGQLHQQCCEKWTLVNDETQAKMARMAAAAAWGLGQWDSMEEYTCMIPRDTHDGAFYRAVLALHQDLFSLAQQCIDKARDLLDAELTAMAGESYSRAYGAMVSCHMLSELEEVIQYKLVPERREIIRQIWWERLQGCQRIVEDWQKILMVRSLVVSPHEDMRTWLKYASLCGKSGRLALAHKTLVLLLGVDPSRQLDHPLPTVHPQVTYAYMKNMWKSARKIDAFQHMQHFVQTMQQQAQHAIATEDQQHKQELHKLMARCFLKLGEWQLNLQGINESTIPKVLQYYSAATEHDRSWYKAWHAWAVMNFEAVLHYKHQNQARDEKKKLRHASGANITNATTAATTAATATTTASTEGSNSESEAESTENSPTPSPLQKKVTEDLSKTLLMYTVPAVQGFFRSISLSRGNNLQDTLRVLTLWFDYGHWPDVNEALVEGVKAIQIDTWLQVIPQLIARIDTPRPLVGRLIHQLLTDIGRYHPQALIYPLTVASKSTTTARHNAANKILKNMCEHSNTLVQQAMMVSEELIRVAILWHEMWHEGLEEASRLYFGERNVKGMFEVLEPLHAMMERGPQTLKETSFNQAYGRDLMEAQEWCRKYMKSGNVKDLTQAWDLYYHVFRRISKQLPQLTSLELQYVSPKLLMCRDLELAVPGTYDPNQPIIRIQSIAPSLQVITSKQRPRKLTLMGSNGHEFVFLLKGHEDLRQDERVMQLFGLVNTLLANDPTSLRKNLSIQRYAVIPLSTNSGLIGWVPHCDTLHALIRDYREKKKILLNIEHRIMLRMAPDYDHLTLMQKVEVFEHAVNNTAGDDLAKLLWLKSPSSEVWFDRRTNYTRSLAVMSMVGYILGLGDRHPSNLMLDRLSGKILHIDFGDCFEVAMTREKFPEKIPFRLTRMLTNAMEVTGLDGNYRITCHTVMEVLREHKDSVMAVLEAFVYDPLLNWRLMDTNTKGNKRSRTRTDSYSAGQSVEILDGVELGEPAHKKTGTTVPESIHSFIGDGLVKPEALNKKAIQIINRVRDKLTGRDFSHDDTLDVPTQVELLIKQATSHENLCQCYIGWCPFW
Consider `C[C@H]1COCCN1c1cc(CNCCCN(C)C)nc(-c2ccc(NC(=O)NC3CC3)cc2)n1` [Example 49e, 3-cyclopropyl-1-[4-[4-[(3-dimethylaminopropylamino)methyl]-6-[(3S)-3-methylmorpholin-4-yl]pyrimidin-2-yl]phenyl]urea], for which the IC50 is 32 nM.
Still for that read-out and setting: the figure for `C[C@H]1COCCN1c1cc(CN2CCOCC2)nc(-c2ccc(NC(=O)NC3CC3)cc2)n1` [Example 49f, 3-cyclopropyl-1-[4-[4-[(3S)-3-methylmorpholin-4-yl]-6-(morpholin-4-ylmethyl)pyrimidin-2-yl]phenyl]urea] is 200 nM; for `C[C@H]1COCCN1c1cc(CNCCN(C)C)nc(-c2ccc(NC(=O)NC3CC3)cc2)n1` [Example 49g, 3-cyclopropyl-1-[4-[4-[(2-dimethylaminoethylamino)methyl]-6-[(3S)-3-methylmorpholin-4-yl]pyrimidin-2-yl]phenyl]urea] it is 87 nM; for `C[C@H]1COCCN1c1cc(CN2CCCN(C)CC2)nc(-c2ccc(NC(=O)NC3CC3)cc2)n1` [Example 49h, 3-cyclopropyl-1-[4-[4-[(4-methyl-1,4-diazepan-1-yl)methyl]-6-[(3S)-3-methylmorpholin-4-yl]pyrimidin-2-yl]phenyl]urea] it is 180 nM.
On the same count and under the same terms, as for `C[C@H]1COCCN1c1cc(CNC(C)(C)CO)nc(-c2ccc(NC(=O)NC3CC3)cc2)n1` [Example 49i, 3-cyclopropyl-1-[4-[4-[[(1-hydroxy-2-methyl-propan-2-yl)amino]methyl]-6-[(3S)-3-methylmorpholin-4-yl]pyrimidin-2-yl]phenyl]urea], the figure is 16 nM.
On the same count and under the same terms, the figure for `C[C@H]1COCCN1c1cc(CN2CC(O)C2)nc(-c2ccc(NC(=O)NC3CC3)cc2)n1` [Example 49k, 3-cyclopropyl-1-[4-[4-[(3-hydroxyazetidin-1-yl)methyl]-6-[(3S)-3-methylmorpholin-4-yl]pyrimidin-2-yl]phenyl]urea] is 14 nM; for `C[C@H]1COCCN1Cc1cc(N2CCOC[C@@H]2C)nc(-c2ccc(NC(=O)NC3CC3)cc2)n1` [Example 49l, 3-cyclopropyl-1-[4-[4-[(3S)-3-methylmorpholin-4-yl]-6-[[(3S)-3-methylmorpholin-4-yl]methyl]pyrimidin-2-yl]phenyl]urea] it is 1600 nM; for `C[C@H]1COCCN1c1cc(CN2CCS(=O)(=O)CC2)nc(-c2ccc(NC(=O)NC3CC3)cc2)n1` [Example 50, 3-Cyclopropyl-1-[4-[4-[(1,1-dioxo-1,4-thiazinan-4-yl)methyl]-6-[(3S)-3-methylmorpholin-4-yl]pyrimidin-2-yl]phenyl]urea] it is 1.6 nM.
For `C[C@H]1COCCN1c1cc(CN2CCN(C)CC2)nc(-c2ccc(NC(=O)NCc3cnn(C)c3)cc2)n1` [Example 52, 1-[4-[4-[(3S)-3-Methylmorpholin-4-yl]-6-[(4-methylpiperazin-1-yl)methyl]pyrimidin-2-yl]phenyl]-3-[(1-methylpyrazol-4-yl)methyl]urea], the IC50 turned out to be 1400 nM.
The same measure, in the same setting: as for `C[C@H]1COCCN1c1cc(CNC2CC2)nc(-c2ccc(NC(=O)NCc3cnn(C)c3)cc2)n1` [Example 52a, 1-[4-[4-[(cyclopropylamino)methyl]-6-[(3S)-3-methylmorpholin-4-yl]pyrimidin-2-yl]phenyl]-3-[(1-methylpyrazol-4-yl)methyl]urea], the figure is 330 nM; as for `C[C@H]1COCCN1c1cc(CN(C)C2CC2)nc(-c2ccc(NC(=O)NCc3cnn(C)c3)cc2)n1` [Example 52b, 1-[4-[4-[(cyclopropyl-methyl-amino)methyl]-6-[(3S)-3-methylmorpholin-4-yl]pyrimidin-2-yl]phenyl]-3-[(1-methylpyrazol-4-yl)methyl]urea], 570 nM; as for `CC(=O)NCCS(=O)(=O)Cc1cc(N2CCOC[C@@H]2C)nc(-c2ccc(NC(=O)NCc3cnn(C)c3)cc2)n1` [Example 53, N-[2-[[6-[(3S)-3-methylmorpholin-4-yl]-2-[4-[(1-methylpyrazol-4-yl)methylcarbamoylamino]phenyl]pyrimidin-4-yl]methylsulfonyl]ethyl]acetamide], 640 nM.
Still for that read-out and setting: the figure for `C[C@H]1COCCN1c1cc(CS(=O)(=O)CC(N)=O)nc(-c2ccc(NC(=O)NCc3cnn(C)c3)cc2)n1` [Example 53a] is 600 nM; for `C[C@H]1COCCN1c1cc(CS(=O)(=O)c2ccncc2)nc(-c2ccc(NC(=O)NCc3cnn(C)c3)cc2)n1` [Example 53c, 1-[4-[4-[(3S)-3-methylmorpholin-4-yl]-6-(pyridin-4-ylsulfonylmethyl)pyrimidin-2-yl]phenyl]-3-[(1-methylpyrazol-4-yl)methyl]urea] it is 30 nM; for `C[C@H]1COCCN1c1cc(CS(=O)(=O)C2CC2)nc(-c2ccc(NC(=O)NC3CC3)cc2)n1` [Example 55, 3-Cyclopropyl-1-[4-[4-(cyclopropylsulfonylmethyl)-6-[(3S)-3-methylmorpholin-4-yl]pyrimidin-2-yl]phenyl]urea] it is 62 nM.
As for `C[C@H]1COCCN1c1cc(C(C)(C)S(=O)(=O)C2CC2)nc(-c2ccc(NC(=O)NC3CC3)cc2)n1` [Example 56, 3-Cyclopropyl-1-[4-[4-(2-cyclopropylsulfonylpropan-2-yl)-6-[(3S)-3-methylmorpholin-4-yl]pyrimidin-2-yl]phenyl]urea], the IC50 amounted to 2400 nM.
As for `CCNC(=O)Nc1ccc(-c2nc(CS(=O)(=O)c3ccccn3)cc(N3CCOC[C@@H]3C)n2)cc1` [Example 71, 3-Ethyl-1-[4-[4-[(3S)-3-methylmorpholin-4-yl]-6-(pyridin-2-ylsulfonylmethyl)pyrimidin-2-yl]phenyl]urea], the half-maximal inhibitory concentration (IC50) was 32 nM.

The subject of the next experiment is phosphorylation of Serine 473 in Akt in MDA-MB-468 human breast adenocarcinoma cells. In words: In vitro phospho-Ser473 Akt assay (Test (c)). The format is cell-based. The following applies: Homo sapiens, MDA-MB-468, 2 h, MDA-MB-468 cells, 2 hours incubation; read-out: Test (c): IC50 versus Serine 473 in Akt. As to the method:
(c) In Vitro Phospho-Ser473 Akt Assay
This assay determines the ability of test compounds to inhibit phosphorylation of Serine 473 in Akt as assessed using Acumen Explorer technology (Acumen Bioscience Limited), a plate reader that can be used to rapidly quantitate features of images generated by laser-scanning.
A MDA-MB-468 human breast adenocarcinoma cell line (LGC Promochem, Teddington, Middlesex, UK, Catalogue No. HTB-132) was routinely maintained at 37° C. with 5% CO2 up to a confluency of 70-90% in DMEM containing 10% heat-inactivated FCS and 1% L-glutamine.
For the assay, the cells were detached from the culture flask using ‘Accutase’ (Innovative Cell Technologies Inc., San Diego, Calif., USA; Catalogue No. AT104) using standard tissue culture methods and resuspended in media to give 1.7×10^5 cells per mL. Aliquots (90 μl) were seeded into each of the inner 60 wells of a black Packard 96 well plate (PerkinElmer, Boston, Mass., USA; Catalogue No. 6005182) to give a density of 15000 cells per well. Aliquots (90 μl) of culture media were placed in the outer wells to prevent edge effects. The cells were incubated overnight at 37° C. with 5% CO2 to allow them to adhere.
On day 2, the cells were treated with test compounds and incubated for 2 hours at 37° C. with 5% CO2. Test compounds were prepared as 10 mM stock solutions in DMSO and serially diluted as required with growth media to give a range of concentrations that were 10-fold the required final test concentrations. Aliquots (10 μl) of each compound dilution were placed in a well (in triplicate) to give the final required concentrations. As a minimum response control, each plate contained wells having a final concentration of 100 μM LY294002 (Calbiochem, Beeston, UK, Catalogue No. 440202). As a maximum response control, wells contained 1% DMSO instead of test compound. Following incubation, the contents of the plates were fixed by treatment with a 1.6% aqueous formaldehyde solution (Sigma, Poole, Dorset, UK, Catalogue No. F1635) at room temperature for 1 hour.
All subsequent aspiration and wash steps were carried out using a Tecan 96 well plate washer (aspiration speed 10 mm/sec). The fixing solution was removed and the contents of the plates were washed with phosphate-buffered saline (PBS; 50 μl; Gibco, Catalogue No. 10010015). The contents of the plates were treated for 10 minutes at room temperature with an aliquot (50 μl) of a cell permeabilisation buffer consisting of a mixture of PBS and 0.5% Tween-20. The ‘permeabilisation’ buffer was removed and non-specific binding sites were blocked by treatment for 1 hour at room temperature of an aliquot (50 μl) of a blocking buffer consisting of 5% dried skimmed milk [‘Marvel’ (registered trade mark); Premier Beverages, Stafford, GB] in a mixture of PBS and 0.05% Tween-20. The ‘blocking’ buffer was removed and the cells were incubated for 1 hour at room temperature with rabbit anti phospho-Akt (Ser473) antibody solution (50 μl per well; Cell Signalling, Hitchin, Herts, U.K., Catalogue No 9277) that had been diluted 1:500 in ‘blocking’ buffer. Cells were washed three times in a mixture of PBS and 0.05% Tween-20. Subsequently, cells were incubated for 1 hour at room temperature with Alexafluor488 labelled goat anti-rabbit IgG (50 μl per well; Molecular Probes, Invitrogen Limited, Paisley, UK, Catalogue No. A11008) that had been diluted 1:500 in ‘blocking’ buffer. Cells were washed 3 times with a mixture of PBS and 0.05% Tween-20. An aliquot of PBS (50 μl) was added to each well and the plates were sealed with black plate sealers and the fluorescence signal was detected and analysed.
Fluorescence dose response data obtained with each compound were analysed and the degree of inhibition of Serine 473 in Akt was expressed as an IC50 value.
As to `C[C@H]1COCCN1c1cc(CS(C)(=O)=O)nc(-c2ccc(NC(=O)Nc3cccc(=O)[nH]3)cc2)n1` [Example 22c, 1-[4-[4-[(3S)-3-methylmorpholin-4-yl]-6-(methylsulfonylmethyl)pyrimidin-2-yl]phenyl]-3-(6-oxo-1H-pyridin-2-yl)urea], the IC50 amounted to 210 nM.
Still for that read-out and setting: the figure for `CCNC(=O)Nc1ncc(-c2nc(N3CCOC[C@@H]3C)cc(C(C)(C)S(C)(=O)=O)n2)cn1` [Example 24af, 1-ethyl-3-[5-[4-[(3S)-3-methylmorpholin-4-yl]-6-(2-methylsulfonylpropan-2-yl)pyrimidin-2-yl]pyrimidin-2-yl]urea] is 1400 nM.
The same measure, in the same setting: as for `C[C@H]1COCCN1c1cc(C(C)(C)S(C)(=O)=O)nc(-c2cnc(NC(=O)NC3CC3)nc2)n1` [Example 24ag, 3-cyclopropyl-1-[5-[4-[(3S)-3-methylmorpholin-4-yl]-6-(2-methylsulfonylpropan-2-yl)pyrimidin-2-yl]pyrimidin-2-yl]urea], the figure is 320 nM; as for `CNC(=O)Nc1ccc(-c2nc(N3CCOC[C@@H]3C)cc(C(C)(C)S(C)(=O)=O)n2)cn1` [Example 24ah, 3-methyl-1-[5-[4-[(3S)-3-methylmorpholin-4-yl]-6-(2-methylsulfonylpropan-2-yl)pyrimidin-2-yl]pyridin-2-yl]urea], 510 nM.

The experiment is the same for the next values; noted with them: MDA-MB-468 cells, 2 hours incubation; read-out: Test (c): IC50 versus Serine 473 in Akt.
On to “1-[4-[4-[(3S)-3-methylmorpholin- 4-yl]-6-(2-propan-2- yl]phenyl]-3-pyridin-2-yl-urea [Example 60u]”, for which the IC50 was determined as 160 nM.

The values above are taken from patent US7750003B2, “Compounds-943” (AstraZeneca AB, priority 2006, dated 2010).
